Some test systems named below: UACC-257 melanoma; LOX IMVI melanoma; SNB-75 CNS; ACHN renal; A549 NSCLC; U251 CNS; KM12 colon; HOP-92 NSCLC; CAKI-1 renal; RXF 393 renal.
Holding throughout (assay): inhibition of tumour cell growth, NCI panel, 48 h

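Test compounds were applied to cells in 96-well plates for 48 hours at 5 doses. Here, GI50 denotes the concentration required for 50% inhibition of growth. TGI: concentration producing complete growth inhibition.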

Take `CCOC(=O)NC(=O)c1cn(CCN2CCN(C(=O)CNC(=O)CNC(=O)Cn3cc(C(=O)NC(=O)OCC)c(=O)[nH]c3=O)CC2)c(=O)[nH]c1=O`: the TGI with UACC-257 melanoma, with LOX IMVI melanoma, in the test on SNB-75 CNS, in the test on ACHN renal, in the test on A549 NSCLC and in the test with U251 CNS was above 100 µM in each case. For the same molecule, the TGI in the test on KM12 colon, in the test with HOP-92 NSCLC and in the test with CAKI-1 renal was above 100 µM each time.

In the case of `CC(C)N(C(=O)c1cccc(C(=O)N(C(C)C)C(C)C)c1)C(C)C`, the TGI with UACC-257 melanoma, in the test with LOX IMVI melanoma, in the test on SNB-75 CNS, in the test on ACHN renal, in the test on A549 NSCLC and in the test on U251 CNS was above 100 µM throughout. The TGI with KM12 colon, in the test on HOP-92 NSCLC and in the test on CAKI-1 renal was above 100 µM in each case.

Turning to `C#CC1(O)CCC2C3CCc4cc(Oc5nc(F)nc(-c6c7ccccc7c7n6CCS7)n5)ccc4C3CC[C@@]21C` (some centres not stated), the TGI was above 100 µM with UACC-257 melanoma; 49.1 µM with SNB-75 CNS; above 100 µM in the test with ACHN renal; above 100 µM in the test with A549 NSCLC; 40.7 µM with U251 CNS; 28.3 µM in the test with KM12 colon. Besides, the TGI stood at 47 µM with HOP-92 NSCLC and 73 µM in the test with CAKI-1 renal.

Turning to `COc1ccccc1N=Nc1c(-c2ccccc2)nn(C(=O)CC(=O)Nc2cccc(C)c2)c1-c1ccccc1`, the TGI in the test with UACC-257 melanoma was above 100 µM; with LOX IMVI melanoma, above 100 µM; with SNB-75 CNS, 93.5 µM; in the test on ACHN renal, above 100 µM; in the test with A549 NSCLC, above 100 µM; in the test on U251 CNS, above 100 µM. Besides, the TGI in the test on KM12 colon, in the test on CAKI-1 renal and in the test with RXF 393 renal was above 100 µM each time.

Regarding `CC(C)/C=C1\CCC(CN2CCOCC2)C1=O` (configuration not stated), the TGI is 20.1 µM in the test with UACC-257 melanoma; 53.6 µM with LOX IMVI melanoma; 32.3 µM in the test with ACHN renal; 72.6 µM in the test on A549 NSCLC; above 56.4 µM with U251 CNS; 23.6 µM with KM12 colon. In addition, the values for the TGI in the test with HOP-92 NSCLC, with CAKI-1 renal and with RXF 393 renal were 38.9 µM, 8.93 µM and 14.1 µM, respectively.

Regarding `COc1ccc2c(c1)/C(=C\c1ccncc1)C(=O)N2`, the GI50 with UACC-257 melanoma is 4.62 µM; in the test with LOX IMVI melanoma, 2.26 µM; in the test on ACHN renal, 4.41 µM; with A549 NSCLC it was 17.3 µM; in the test on U251 CNS, 4.32 µM; in the test with KM12 colon, 4.83 µM. Moreover, the values for the GI50 with HOP-92 NSCLC and in the test on CAKI-1 renal were 22.4 µM and 3.64 µM, respectively. The TGI amounted to 18.3 µM in the test with UACC-257 melanoma; 5.82 µM in the test with LOX IMVI melanoma; 15.9 µM in the test with ACHN renal; 46.4 µM with A549 NSCLC; 23.1 µM in the test on U251 CNS; 24 µM in the test with KM12 colon. Moreover, the TGI with HOP-92 NSCLC was found to be 98 µM; in the test on CAKI-1 renal, 15.9 µM.

As to `C=CCn1c(=S)sc2c(C(=O)OCC)c3c(C)cc(C)cn3c2c1=O`, the TGI in the test with UACC-257 melanoma, in the test with LOX IMVI melanoma, with SNB-75 CNS, in the test on ACHN renal, in the test with A549 NSCLC and with U251 CNS was above 100 µM in each case. Besides, the TGI in the test on CAKI-1 renal and in the test with RXF 393 renal was above 100 µM throughout.

On to `Cn1cnc(N)c(N=O)c1=O`, for which the TGI in the test with UACC-257 melanoma, with LOX IMVI melanoma, with SNB-75 CNS, in the test with ACHN renal, in the test on A549 NSCLC and in the test with U251 CNS was above 10 µM each time. In addition, the TGI in the test with KM12 colon, in the test on CAKI-1 renal and in the test on RXF 393 renal was above 10 µM in each case.

As for `Cc1c(C(=O)C/C(=N/NC(=O)c2ccccc2)C(=O)Nc2ccc(Cl)cc2)[n+](=O)c2ccccc2n1[O-]`, the TGI in the test with UACC-257 melanoma, in the test with LOX IMVI melanoma, with SNB-75 CNS, in the test with ACHN renal, in the test with A549 NSCLC and in the test on U251 CNS was above 100 µM throughout. For the same molecule, the TGI in the test on KM12 colon, in the test with CAKI-1 renal and with RXF 393 renal was above 100 µM throughout.

`CCOc1ccc2c(-c3ccnc(Nc4cc(OC)cc(C(F)(F)F)c4)n3)cnn2n1`: the GI50 with UACC-257 melanoma was above 25 µM; in the test with LOX IMVI melanoma, 15.7 µM; with SNB-75 CNS it was 15.1 µM; in the test on ACHN renal, above 25 µM; with A549 NSCLC, above 14.7 µM; in the test with U251 CNS, above 13 µM. The figures for the GI50 with KM12 colon, in the test on CAKI-1 renal and in the test on RXF 393 renal were 3.58 µM, above 10.3 µM and 10.8 µM, respectively. Besides, the TGI in the test on UACC-257 melanoma, with LOX IMVI melanoma, in the test with SNB-75 CNS, in the test with ACHN renal, with A549 NSCLC and in the test on U251 CNS was above 25 µM throughout. Moreover, the results for the TGI in the test on KM12 colon, in the test with CAKI-1 renal and in the test on RXF 393 renal were above 25 µM, above 25 µM and above 23.6 µM, respectively.

As to `Cc1ccc(/C=C(\C#N)c2cc3ccccc3n2C)cc1`, the GI50 was above 100 µM in the test with UACC-257 melanoma; 0.542 µM with LOX IMVI melanoma; 0.783 µM in the test with ACHN renal; 0.463 µM in the test on A549 NSCLC; 0.406 µM in the test with U251 CNS; 0.428 µM in the test on KM12 colon. In addition, the GI50 in the test with HOP-92 NSCLC is 1.13 µM; in the test on CAKI-1 renal it was 0.406 µM; in the test with RXF 393 renal, 0.172 µM. For the same molecule, the TGI in the test with UACC-257 melanoma, in the test on LOX IMVI melanoma, in the test with ACHN renal, in the test with A549 NSCLC, in the test on U251 CNS and in the test with KM12 colon was above 100 µM throughout. For the same molecule, the TGI is above 100 µM in the test with HOP-92 NSCLC, above 100 µM in the test with CAKI-1 renal and 0.565 µM in the test on RXF 393 renal.

These data come from PubChem BioAssay (NCI).
